Reference: patent US20230373930A1, “AMINOIMIDAZOLE FPR2 AGONISTS” (BRISTOL-MYERS SQUIBB COMPANY, priority 2020, published 2023)

Key:
human FPR2 = molecular target: T1, human FPR2 (Homo sapiens, UniProt P25090); test: FPR2 cyclic adenosine monophosphate (cAMP) assay; assay type: cell-based; conditions: CHO cells overexpressing human FPR2; forskolin 5 μM; inhibition of cAMP production; HTRF; read-out: hFPR2 cAMP2 EC50
T1 sequence (P25090 1-351): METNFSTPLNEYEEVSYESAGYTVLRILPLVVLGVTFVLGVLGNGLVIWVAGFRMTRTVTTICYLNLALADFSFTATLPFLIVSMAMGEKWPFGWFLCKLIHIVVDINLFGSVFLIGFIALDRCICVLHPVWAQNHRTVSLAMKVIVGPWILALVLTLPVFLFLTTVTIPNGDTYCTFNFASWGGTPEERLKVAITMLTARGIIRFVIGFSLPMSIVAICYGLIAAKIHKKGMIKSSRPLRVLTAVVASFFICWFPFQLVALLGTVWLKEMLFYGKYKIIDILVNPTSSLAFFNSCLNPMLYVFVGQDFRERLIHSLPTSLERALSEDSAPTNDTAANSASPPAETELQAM
Method in brief: (§1)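 CHO cells overexpressing human FPR1 (4,000/well, 10 μM forskolin) or FPR2 (2,000/well, 5 μM forskolin) were incubated with 200 μM IBMX and compound (0.020 nM–100 μM, 1% DMSO) for 30 min at room temperature. Intracellular cAMP was measured by HTRF against a cAMP standard curve, and inhibition of cAMP production was fitted to a 4-parameter logistic.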

human FPR1 = molecular target: T2, human FPR1 (Homo sapiens, UniProt P21462); test: FPR1 cyclic adenosine monophosphate (cAMP) assay; assay type: cell-based; conditions: CHO cells overexpressing human FPR1; forskolin 10 μM; inhibition of cAMP production; HTRF; read-out: hFPR1 cAMP2 EC50
T2 sequence (P21462 1-350): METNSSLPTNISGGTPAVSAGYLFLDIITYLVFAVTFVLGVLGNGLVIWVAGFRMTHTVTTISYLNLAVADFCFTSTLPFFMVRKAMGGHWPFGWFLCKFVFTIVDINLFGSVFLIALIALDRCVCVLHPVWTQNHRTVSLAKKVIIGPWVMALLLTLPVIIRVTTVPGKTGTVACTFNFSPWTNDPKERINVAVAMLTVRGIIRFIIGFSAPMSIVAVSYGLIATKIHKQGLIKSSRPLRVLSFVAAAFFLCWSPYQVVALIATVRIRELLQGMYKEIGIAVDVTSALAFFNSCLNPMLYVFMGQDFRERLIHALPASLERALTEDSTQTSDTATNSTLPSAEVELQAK
Method in brief: as §1

Row | Compound | EC50 (human FPR2) | EC50 (human FPR1)
1 | COc1cccc(-c2cn(-c3c(F)cc(OC)cc3F)c(NC(=O)c3ccc(OC(F)F)cc3)n2)c1 [Example 3, N-[1-(2,6-Difluoro-4-methoxyphenyl)-4-(3-methoxyphenyl)-1H-imidazol-2-yl]-4-(difluoromethoxy)benzamide] | 8 nM | 88 nM
2 | CCOC(=O)c1cn(-c2c(F)cc(OC)cc2F)c(NC(=O)c2ccc(OC(F)F)cc2)n1 [Example 38, Ethyl 1-(2,6-difluoro-4-methoxyphenyl)-2-[4-(difluoromethoxy)benzamido]-1H-imidazole-4-carboxylate] | 15 nM | 620 nM
3 | COc1ccc(-n2cc(-c3cc4cc(Cl)ccc4o3)nc2NC(=O)c2ccc(OC(F)F)cc2)cc1 [Example 26, N-[4-(5-Chloro-1-benzofuran-2-yl)-1-(4-methoxyphenyl)-1H-imidazol-2-yl]-4-(difluoromethoxy)benzamide] | 72 nM | 400 nM
4 | COc1cc(F)c(-n2cc(-c3ccc(Cl)c(Cl)c3)nc2NC(=O)c2ccc(OC(F)F)cc2)c(F)c1 [Example 18, N-[4-(3,4-Dichlorophenyl)-1-(2,6-difluoro-4-methoxyphenyl)-1H-imidazol-2-yl]-4-(difluoromethoxy)benzamide] | 51 nM | 400 nM
5 | COc1cc(F)c(-n2cc(-c3ccc(Cl)cc3)nc2NC(=O)c2ccc(OC(F)F)cc2)c(F)c1 [Example 11, N-[4-(4-Chlorophenyl)-1-(2,6-difluoro-4-methoxyphenyl)-1H-imidazol-2-yl]-4-(difluoromethoxy)benzamide] | 24 nM | 140 nM
6 | COc1cc(F)c(-n2cc(C(=O)N3CCOCC3)nc2NC(=O)c2ccc(OC(F)F)cc2)c(F)c1 [Example 54, N-[1-(2,6-Difluoro-4-methoxyphenyl)-4-(morpholine-4-carbonyl)-1H-imidazol-2-yl]-4-(difluoromethoxy)benzamide] | 320 nM | > 10000 nM
7 | COc1cc(F)c(-n2c(NC(=O)c3ccc(OC(F)F)cc3)nc(-c3ccc(Cl)cc3)c2C)c(F)c1 [Example 13, N-[4-(4-Chlorophenyl)-1-(2,6-difluoro-4 methoxyphenyl)-5-methyl-1H-imidazol-2-yl]-4-(difluoromethoxy)benzamide] | 53 nM | 550 nM

Second part, the compound after the results:

Row | EC50 (human FPR2) | EC50 (human FPR1) | Compound
8 | 23 nM | 300 nM | COc1cc(F)c(-n2cc(Cc3nnc(C)o3)nc2NC(=O)c2ccc(OC(F)F)cc2)c(F)c1 [Example 73, N-(1-(2,6-Difluoro-4-methoxyphenyl)-4-((5-methyl-1,3,4-oxadiazol-2-yl)methyl)-1H-imidazol-2-yl)-4-(difluoromethoxy)benzamide]
9 | 13 nM | 120 nM | COc1cc(F)c(-n2cc(Cc3nc4ncc(F)cc4[nH]3)nc2NC(=O)c2ccc(OC(F)F)cc2)c(F)c1 [Example 77, N-(1-(2,6-Difluoro-4-methoxyphenyl)-4-((6-fluoro-1H-imidazo[4,5-b]pyridin-2-yl)methyl)-1H-imidazol-2-yl)-4-(difluoromethoxy)benzamide]
10 | 45 nM | 110 nM | COc1cc(F)c(-n2cc(C3CCN(C(=O)CCO)CC3)nc2NC(=O)c2ccc(OC(F)F)cc2)c(F)c1 [Example 68, N-[1-(2,6-difluoro-4-methoxyphenyl)-4-[1-(3-hydroxypropanoyl)piperidin-4-yl]-1H-imidazol-2-yl]-4-(difluoromethoxy)benzamide]
11 | 10 nM | 710 nM | COc1cc(F)c(-n2cc(C3CCNCC3)nc2NC(=O)c2ccc(OC(F)F)cc2)c(F)c1 [Example 63, N-[1-(2,6-Difluoro-4-methoxyphenyl)-4-(piperidin-4-yl)-1H-imidazol-2-yl]-4-(difluoromethoxy)benzamide]
12 | 170 nM | 3400 nM | COc1cc(F)c(-n2cc(C(=O)N3CCNC(=O)C3)nc2NC(=O)c2ccc(OC(F)F)cc2)c(F)c1 [Example 58, N-[1-(2,6-Difluoro-4-methoxyphenyl)-4-(3-oxopiperazine-1-carbonyl)-1H-imidazol-2-yl]-4-(difluoromethoxy)benzamide]
